Laboratory results from US8772250B2, “Compositions and methods for treating ischemia and ischemia-reperfusion injury” (Ischemix, LLC, priority 2010, dated 2014).

Target: T1, insulin receptor kinase (Homo sapiens, UniProt P06213)
T1 construct: insulin receptor kinase domain (Millipore catalog #14-466, 80 nM); purchased Millipore 14-466
Experiment: IRK activation assay (mobility shift kinase assay)
Type: biochemical
Description: Insulin receptor kinase activity was readily measured by a mobility shift assay using a Caliper LabChip® 3000 and a 12-sipper LabChip® to detect both phosphorylated and unphosphorylated substrate (Caliper Life Sciences, Discovery Alliances and Services Division, Hanover, Md.). The mobility-shift kinase assay uses a micro fluidic chip to measure the conversion of a fluorescent peptide substrate to a phosphorylated product. The reaction mixture from a microtiter plate well was introduced through a capillary sipper onto the chip and the nonphosphorylated substrate and phosphorylated product were separated by electrophoresis and detected via laser-induced fluorescence. […] The catalytic subunits of tyrosine kinases have endogenous levels of activity in the presence of ATP and substrate, thus the results are presented as a % of control.
Specifically, each test compound was diluted to 25 times its assay concentration with 100% DMSO and added to 12 μL of an assay buffer solution (100 mM HEPES, 10 mM MnCl2, 5 mM B-GP, and 0.002% Brij) containing dithiotheritol (DTT, 2 mM) and insulin receptor kinase domain (Millipore catalog #14-466, 80 nM) prior to pre-incubation at room temperature for 15 minutes. […] The samples were placed on the LabChip 3000 to measure the amount of parent substrate and phosphorylated product. […]

T1 sequence (P06213 1023-1298 limits assumed): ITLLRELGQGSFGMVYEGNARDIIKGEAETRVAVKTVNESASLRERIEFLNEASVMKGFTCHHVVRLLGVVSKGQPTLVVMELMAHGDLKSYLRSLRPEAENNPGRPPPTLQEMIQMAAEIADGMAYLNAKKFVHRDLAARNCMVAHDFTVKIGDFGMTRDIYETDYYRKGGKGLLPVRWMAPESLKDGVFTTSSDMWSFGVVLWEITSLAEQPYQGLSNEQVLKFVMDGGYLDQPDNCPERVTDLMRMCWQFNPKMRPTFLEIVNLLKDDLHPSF

Structure (SMILES): C[C@H](NC(=O)[C@H](CCC(=O)O)NC(=O)CCCC[C@@H]1CCSS1)C(=O)O [RLip-EA-OH, N-(R)-lipoyl-L-glutamyl-L- alanine]
- AVG % activity above control (±SEM) (100 μM): 78 ± 15%
- IRK % Increase in activity above vehicle control (300 μM): 77 ± 7%
